Assay results published in ChEMBL document CHEMBL1697731, “Cheminformatics analysis of assertions mined from literature that describe drug-induced liver injury in different species” (Chem Res Toxicol, 2010).

Key:
Hepatotoxicity [1] = test: Literature-mined compound from Fourches et al multi-species drug-induced liver injury (DILI) dataset, effect in non-rodents
Hepatotoxicity [2] = test: Literature-mined compound from Fourches et al multi-species drug-induced liver injury (DILI) dataset, effect in humans; details: human
Hepatotoxicity [3] = test: Literature-mined compound from Fourches et al multi-species drug-induced liver injury (DILI) dataset, effect in rodents; details: rodentia

Clc1ccc(COC(Cn2ccnc2)c2ccc(Cl)cc2Cl)c(Cl)c1 (stereo not given) [MICONAZOLE]
Hepatotoxicity (Hepatotoxicity [1]): no drug-induced liver injury reported
Hepatotoxicity (Hepatotoxicity [2]): drug-induced liver injury reported
Hepatotoxicity (Hepatotoxicity [3]): drug-induced liver injury reported

Cc1ncc2n1-c1ccc(Cl)cc1C(c1ccccc1F)=NC2 [MIDAZOLAM]
Hepatotoxicity (Hepatotoxicity [1]): no drug-induced liver injury reported
Hepatotoxicity (Hepatotoxicity [2]): no drug-induced liver injury reported
Hepatotoxicity (Hepatotoxicity [3]): drug-induced liver injury reported

CC#C[C@]1(O)CC[C@H]2[C@@H]3CCC4=CC(=O)CCC4=C3[C@@H](c3ccc(N(C)C)cc3)C[C@@]21C [MIFEPRISTONE]
Hepatotoxicity (Hepatotoxicity [1]): no drug-induced liver injury reported
Hepatotoxicity (Hepatotoxicity [2]): no drug-induced liver injury reported
Hepatotoxicity (Hepatotoxicity [3]): drug-induced liver injury reported

CCCCCCCCCCCCCCCCOP(=O)([O-])OCC[N+](C)(C)C [MILTEFOSINE]
Hepatotoxicity (Hepatotoxicity [1]): no drug-induced liver injury reported
Hepatotoxicity (Hepatotoxicity [2]): drug-induced liver injury reported
Hepatotoxicity (Hepatotoxicity [3]): no drug-induced liver injury reported

CN(C)c1ccc(O)c2c1C[C@H]1C[C@H]3[C@H](N(C)C)C(O)=C(C(N)=O)C(=O)[C@@]3(O)C(O)=C1C2=O [MINOCYCLINE]
Hepatotoxicity (Hepatotoxicity [1]): no drug-induced liver injury reported
Hepatotoxicity (Hepatotoxicity [2]): drug-induced liver injury reported
Hepatotoxicity (Hepatotoxicity [3]): drug-induced liver injury reported

Nc1cc(N2CCCCC2)nc(N)[n+]1[O-] [MINOXIDIL]
Hepatotoxicity (Hepatotoxicity [1]): no drug-induced liver injury reported
Hepatotoxicity (Hepatotoxicity [2]): drug-induced liver injury reported
Hepatotoxicity (Hepatotoxicity [3]): drug-induced liver injury reported

CN1CCN2c3ncccc3Cc3ccccc3C2C1 (stereo not given) [MIRTAZAPINE]
Hepatotoxicity (Hepatotoxicity [1]): no drug-induced liver injury reported
Hepatotoxicity (Hepatotoxicity [2]): drug-induced liver injury reported
Hepatotoxicity (Hepatotoxicity [3]): no drug-induced liver injury reported

CCCCC(C)(O)C/C=C/[C@H]1[C@H](O)CC(=O)[C@@H]1CCCCCCC(=O)OC (stereo not given in full) [MISOPROSTOL]
Hepatotoxicity (Hepatotoxicity [1]): drug-induced liver injury reported
Hepatotoxicity (Hepatotoxicity [2]): no drug-induced liver injury reported
Hepatotoxicity (Hepatotoxicity [3]): drug-induced liver injury reported

O=C(O)[C@H](CC(=O)N1C[C@H]2CCCC[C@H]2C1)Cc1ccccc1 [MITIGLINIDE]
Hepatotoxicity (Hepatotoxicity [1]): no drug-induced liver injury reported
Hepatotoxicity (Hepatotoxicity [2]): no drug-induced liver injury reported
Hepatotoxicity (Hepatotoxicity [3]): drug-induced liver injury reported

Clc1ccc(C(c2ccccc2Cl)C(Cl)Cl)cc1 (stereo not given) [MITOTANE]
Hepatotoxicity (Hepatotoxicity [1]): drug-induced liver injury reported
Hepatotoxicity (Hepatotoxicity [2]): drug-induced liver injury reported
Hepatotoxicity (Hepatotoxicity [3]): no drug-induced liver injury reported

O=C1c2c(O)ccc(O)c2C(=O)c2c(NCCNCCO)ccc(NCCNCCO)c21 [MITOXANTRONE]
Hepatotoxicity (Hepatotoxicity [1]): no drug-induced liver injury reported
Hepatotoxicity (Hepatotoxicity [2]): drug-induced liver injury reported
Hepatotoxicity (Hepatotoxicity [3]): drug-induced liver injury reported

CN(c1nccc(=O)[nH]1)C1CCN(c2nc3ccccc3n2Cc2ccc(F)cc2)CC1 [MIZOLASTINE]
Hepatotoxicity (Hepatotoxicity [1]): no drug-induced liver injury reported
Hepatotoxicity (Hepatotoxicity [2]): drug-induced liver injury reported
Hepatotoxicity (Hepatotoxicity [3]): no drug-induced liver injury reported

NC(=O)C[S+]([O-])C(c1ccccc1)c1ccccc1 (stereo not given) [MODAFINIL]
Hepatotoxicity (Hepatotoxicity [1]): no drug-induced liver injury reported
Hepatotoxicity (Hepatotoxicity [2]): drug-induced liver injury reported
Hepatotoxicity (Hepatotoxicity [3]): no drug-induced liver injury reported

CCOC(=O)[N-]c1cn(N2CCOCC2)n[o+]1 [MOLSIDOMINE]
Hepatotoxicity (Hepatotoxicity [1]): no drug-induced liver injury reported
Hepatotoxicity (Hepatotoxicity [2]): drug-induced liver injury reported
Hepatotoxicity (Hepatotoxicity [3]): drug-induced liver injury reported

CC[C@@]1([C@H]2O[C@H]([C@H]3O[C@@](O)(CO)[C@H](C)C[C@@H]3C)C[C@H]2C)CC[C@H]([C@@]2(C)CC[C@]3(C[C@H](O)[C@@H](C)[C@@H]([C@H](C)[C@H](OC)[C@@H](C)C(=O)[O-])O3)O2)O1.[Na+] [MONENSIN SODIUM]
Hepatotoxicity (Hepatotoxicity [1]): no drug-induced liver injury reported
Hepatotoxicity (Hepatotoxicity [2]): no drug-induced liver injury reported
Hepatotoxicity (Hepatotoxicity [3]): drug-induced liver injury reported

CC(C)(O)c1ccccc1CC[C@@H](SCC1(CC(=O)O)CC1)c1cccc(/C=C/c2ccc3ccc(Cl)cc3n2)c1 [MONTELUKAST]
Hepatotoxicity (Hepatotoxicity [1]): no drug-induced liver injury reported
Hepatotoxicity (Hepatotoxicity [2]): drug-induced liver injury reported
Hepatotoxicity (Hepatotoxicity [3]): no drug-induced liver injury reported

O=C(NCN1CCOCC1)c1cnccn1 [MORINAMIDE]
Hepatotoxicity (Hepatotoxicity [1]): no drug-induced liver injury reported
Hepatotoxicity (Hepatotoxicity [2]): drug-induced liver injury reported
Hepatotoxicity (Hepatotoxicity [3]): no drug-induced liver injury reported

CN1CC[C@]23c4c5ccc(O)c4O[C@H]2[C@@H](O)C=C[C@H]3[C@H]1C5 [MORPHINE]
Hepatotoxicity (Hepatotoxicity [1]; Liver): no drug-induced liver injury reported
Hepatotoxicity (Hepatotoxicity [2]; Liver): drug-induced liver injury reported
Hepatotoxicity (Hepatotoxicity [3]; Liver): drug-induced liver injury reported

CO[C@@]1(NC(=O)C(C(=O)O)c2ccc(O)cc2)C(=O)N2C(C(=O)O)=C(CSc3nnnn3C)CO[C@@H]21 (stereo not given in full) [MOXALACTAM]
Hepatotoxicity (Hepatotoxicity [1]): no drug-induced liver injury reported
Hepatotoxicity (Hepatotoxicity [2]): drug-induced liver injury reported
Hepatotoxicity (Hepatotoxicity [3]): no drug-induced liver injury reported

COc1c(N2C[C@@H]3CCCN[C@@H]3C2)c(F)cc2c(=O)c(C(=O)O)cn(C3CC3)c12 [MOXIFLOXACIN]
Hepatotoxicity (Hepatotoxicity [1]): no drug-induced liver injury reported
Hepatotoxicity (Hepatotoxicity [2]): drug-induced liver injury reported
Hepatotoxicity (Hepatotoxicity [3]): no drug-induced liver injury reported

CC(=O)Oc1cc(C(C)C)c(OCCN(C)C)cc1C [MOXISYLYTE]
Hepatotoxicity (Hepatotoxicity [1]): no drug-induced liver injury reported
Hepatotoxicity (Hepatotoxicity [2]): drug-induced liver injury reported
Hepatotoxicity (Hepatotoxicity [3]): no drug-induced liver injury reported

COc1nc(C)nc(Cl)c1N=C1NCCN1 [MOXONIDINE]
Hepatotoxicity (Hepatotoxicity [1]): no drug-induced liver injury reported
Hepatotoxicity (Hepatotoxicity [2]): no drug-induced liver injury reported
Hepatotoxicity (Hepatotoxicity [3]): drug-induced liver injury reported

CC(c1ccc(Cl)c(Cl)c1)N1N=C(N)CC1=O (stereo not given) [MUZOLIMINE]
Hepatotoxicity (Hepatotoxicity [1]): no drug-induced liver injury reported
Hepatotoxicity (Hepatotoxicity [2]): drug-induced liver injury reported
Hepatotoxicity (Hepatotoxicity [3]): no drug-induced liver injury reported

COc1c(C)c2c(c(O)c1C/C=C(\C)CCC(=O)OCCN1CCOCC1)C(=O)OC2 [MYCOPHENOLATE MOFETIL]
Hepatotoxicity (Hepatotoxicity [1]): no drug-induced liver injury reported
Hepatotoxicity (Hepatotoxicity [2]): drug-induced liver injury reported
Hepatotoxicity (Hepatotoxicity [3]): no drug-induced liver injury reported

COc1c(C)c2c(c(O)c1C/C=C(\C)CCC(=O)O)C(=O)OC2 [MYCOPHENOLIC ACID]
Hepatotoxicity (Hepatotoxicity [1]): no drug-induced liver injury reported
Hepatotoxicity (Hepatotoxicity [2]): drug-induced liver injury reported
Hepatotoxicity (Hepatotoxicity [3]): drug-induced liver injury reported

COc1ccc2cc(CCC(C)=O)ccc2c1 [NABUMETONE]
Hepatotoxicity (Hepatotoxicity [1]): no drug-induced liver injury reported
Hepatotoxicity (Hepatotoxicity [2]): no drug-induced liver injury reported
Hepatotoxicity (Hepatotoxicity [3]): drug-induced liver injury reported

NC(=O)c1ccc[n+]([C@@H]2O[C@H](COP(=O)([O-])OP(=O)(O)OC[C@H]3O[C@@H](n4cnc5c(N)ncnc54)[C@H](O)[C@@H]3O)[C@@H](O)[C@H]2O)c1 [NADIDE]
Hepatotoxicity (Hepatotoxicity [1]): no drug-induced liver injury reported
Hepatotoxicity (Hepatotoxicity [2]): no drug-induced liver injury reported
Hepatotoxicity (Hepatotoxicity [3]): drug-induced liver injury reported

CC(C)(C)NCC(O)COc1cccc2c1CC(O)C(O)C2 (stereo not given) [NADOLOL]
Hepatotoxicity (Hepatotoxicity [1]): no drug-induced liver injury reported
Hepatotoxicity (Hepatotoxicity [2]): drug-induced liver injury reported
Hepatotoxicity (Hepatotoxicity [3]): no drug-induced liver injury reported

CC(C)C[C@H](NC(=O)[C@@H](Cc1ccc2ccccc2c1)NC(=O)[C@H](Cc1ccc(O)cc1)NC(=O)[C@H](CO)NC(=O)[C@H](Cc1c[nH]c2ccccc12)NC(=O)[C@H](Cc1c[nH]cn1)NC(=O)[C@@H]1CCC(=O)N1)C(=O)N[C@@H](CCCNC(=N)N)C(=O)N1CCC[C@H]1C(=O)NCC(N)=O [NAFARELIN]
Hepatotoxicity (Hepatotoxicity [1]): no drug-induced liver injury reported
Hepatotoxicity (Hepatotoxicity [2]): drug-induced liver injury reported
Hepatotoxicity (Hepatotoxicity [3]): no drug-induced liver injury reported

CCn1cc(C(=O)O)c(=O)c2ccc(C)nc21 [NALIDIXIC ACID]
Hepatotoxicity (Hepatotoxicity [1]): no drug-induced liver injury reported
Hepatotoxicity (Hepatotoxicity [2]): drug-induced liver injury reported
Hepatotoxicity (Hepatotoxicity [3]): drug-induced liver injury reported

C=CCN1CC[C@]23c4c5ccc(O)c4O[C@H]2[C@@H](O)C=C[C@H]3[C@H]1C5 [NALORPHINE]
Hepatotoxicity (Hepatotoxicity [1]): no drug-induced liver injury reported
Hepatotoxicity (Hepatotoxicity [2]): no drug-induced liver injury reported
Hepatotoxicity (Hepatotoxicity [3]): drug-induced liver injury reported

C=CCN1CC[C@]23c4c5ccc(O)c4O[C@H]2C(=O)CC[C@@]3(O)[C@H]1C5 [NALOXONE]
Hepatotoxicity (Hepatotoxicity [1]): no drug-induced liver injury reported
Hepatotoxicity (Hepatotoxicity [2]): no drug-induced liver injury reported
Hepatotoxicity (Hepatotoxicity [3]): drug-induced liver injury reported

O=C1CC[C@@]2(O)[C@H]3Cc4ccc(O)c5c4[C@@]2(CCN3CC2CC2)[C@H]1O5 [NALTREXONE]
Hepatotoxicity (Hepatotoxicity [1]): no drug-induced liver injury reported
Hepatotoxicity (Hepatotoxicity [2]): drug-induced liver injury reported
Hepatotoxicity (Hepatotoxicity [3]): drug-induced liver injury reported

CCCCCCCCCC(=O)O[C@H]1CC[C@H]2[C@@H]3CCC4=CC(=O)CC[C@@H]4[C@H]3CC[C@]12C [NANDROLONE DECANOATE]
Hepatotoxicity (Hepatotoxicity [1]): no drug-induced liver injury reported
Hepatotoxicity (Hepatotoxicity [2]): no drug-induced liver injury reported
Hepatotoxicity (Hepatotoxicity [3]): drug-induced liver injury reported

COc1ccc2cc([C@H](C)C(=O)O)ccc2c1 [NAPROXEN]
Hepatotoxicity (Hepatotoxicity [1]; Liver): no drug-induced liver injury reported
Hepatotoxicity (Hepatotoxicity [2]; Liver): drug-induced liver injury reported
Hepatotoxicity (Hepatotoxicity [3]; Liver): drug-induced liver injury reported
